Measured values published in patent US10596145B2, “Heterocyclic flavone derivatives, compositions, and methods related thereto” (Emory University, priority 2012, dated 2020).
“Also recorded” adds a separate entry of the source.

Columns and labels:
[1] = molecular target: T1, TrkB (Rattus norvegicus, UniProt Q63604); assay: TrkB activation in primary cortical neurons (immunoblotting); type: cell-based; conditions: 500 nM, 15 min
T1 construct: endogenous in cells; host or cells: primary cortical neurons from E17 rat embryos
T1 sequence (Q63604 32-821): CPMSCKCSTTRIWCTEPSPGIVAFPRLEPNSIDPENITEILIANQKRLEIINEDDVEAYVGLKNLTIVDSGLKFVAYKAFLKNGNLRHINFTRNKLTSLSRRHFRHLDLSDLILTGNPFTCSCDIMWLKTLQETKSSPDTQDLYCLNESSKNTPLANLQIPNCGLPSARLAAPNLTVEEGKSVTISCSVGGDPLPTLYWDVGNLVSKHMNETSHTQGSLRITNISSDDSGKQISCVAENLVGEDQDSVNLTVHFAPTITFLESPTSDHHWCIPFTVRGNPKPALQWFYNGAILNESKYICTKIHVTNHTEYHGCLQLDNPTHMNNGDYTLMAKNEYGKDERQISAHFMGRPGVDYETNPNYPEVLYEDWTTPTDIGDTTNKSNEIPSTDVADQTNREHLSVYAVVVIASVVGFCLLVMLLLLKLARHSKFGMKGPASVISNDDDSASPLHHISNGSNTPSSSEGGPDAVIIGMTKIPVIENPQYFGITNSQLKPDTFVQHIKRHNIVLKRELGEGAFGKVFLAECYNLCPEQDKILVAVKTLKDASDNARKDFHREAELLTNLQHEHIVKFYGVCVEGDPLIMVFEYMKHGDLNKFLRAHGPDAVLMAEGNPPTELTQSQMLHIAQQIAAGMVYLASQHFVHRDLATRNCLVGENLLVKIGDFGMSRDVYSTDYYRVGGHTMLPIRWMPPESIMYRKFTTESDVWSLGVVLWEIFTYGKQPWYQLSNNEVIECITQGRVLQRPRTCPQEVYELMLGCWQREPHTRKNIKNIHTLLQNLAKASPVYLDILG
Method: Primary cortical cultures from E17 rat embryos were treated with 500 nM of various synthetic flavone derivatives for 15 min. The cell lysates (20 μg) were analyzed by the immunoblotting.
Rat primary neurons were treated with 500 nM various indicated compounds from 15 min. The neuronal lysates ([…]) were analyzed with various antibodies.
500 nM of different synthetic compounds were added to DIV 7 neurons for 15 min. The cell lysates were analyzed by immunoblotting with indicated p-Akt 473 antibodies.
Replacing the 3′-dimethylamino group or 4′-morpholino group was tested for TrkB agonistic activity. To compare the TrkB activation by these compounds, primary cortical cultures were prepared and treated them with 500 nM of various compounds for 15 min and collected the cell lysates. […] The p-Akt ELISA analysis results were similar to the TrkB activation pattern (FIG. 2B, lower panel).

[2] = system: C57BL/6J mice; assay: Forced swim test; type: in vivo, mouse
Method: Male C57BL/6J mice (6 mice/group) were orally administrated by gavage with 5 mg/kg compound (m) or compound (i) and vehicle solvent saline for 21 days and subjected to a forced swim test (6 min, immobility recorded in the last 4 min). Data are presented as mean±SEM. (n=6, ***P<0.0001 vs vehicle, Student t-test).
Forced swim test. Male C57BL/6J mice (8 mice/group) were orally administrated by gavage with 2.5 mg/kg compound o or compound p and vehicle solvent saline for 21 days and subjected to a forced swim test (6 min, immobility recorded in the last 4 min). […] Data are presented as mean±SEM.
Adult male mice (2-3 months old) were randomly submitted to a forced swim test without a preswim. Test compounds were orally administrated by gavage for 21 days. The mice were allowed to adapt to the test room for 2 days. The mice were placed in a clear glass cylinder with a diameter of 16 cm, half-filled with clear water at 24° C.

[3] = molecular target: T2, CYP1A2 (Homo sapiens, UniProt P05177); assay: CYP screen inhibition; type: in vitro ADME
T2 sequence (P05177 1-516): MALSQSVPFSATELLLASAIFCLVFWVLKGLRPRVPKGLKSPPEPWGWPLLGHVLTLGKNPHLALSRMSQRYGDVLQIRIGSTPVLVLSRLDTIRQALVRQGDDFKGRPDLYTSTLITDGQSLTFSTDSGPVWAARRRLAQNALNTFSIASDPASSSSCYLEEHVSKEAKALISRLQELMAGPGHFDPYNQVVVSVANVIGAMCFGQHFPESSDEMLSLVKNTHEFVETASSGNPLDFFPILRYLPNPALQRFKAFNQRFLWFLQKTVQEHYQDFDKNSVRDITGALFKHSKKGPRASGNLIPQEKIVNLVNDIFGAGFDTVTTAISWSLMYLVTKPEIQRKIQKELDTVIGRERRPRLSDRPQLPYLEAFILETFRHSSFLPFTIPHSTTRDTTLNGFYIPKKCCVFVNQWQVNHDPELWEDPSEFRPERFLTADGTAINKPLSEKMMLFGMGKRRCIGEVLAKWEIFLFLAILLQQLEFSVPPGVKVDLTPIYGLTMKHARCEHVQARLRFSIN
Method: At 30 μM, the inhibition patterns contained similar trends. To test the possible cardiovascular toxicity, hERG inhibition triggered by compound o was examined.

## Cc1nc2ccc3c(=O)cc(-c4ccc(N5CCCC5)cc4)oc3c2[nH]1 [compound o, 2-methyl-8-(4-(pyrrolidin-1-yl)phenyl)chromeno[7,8-d]imidazol-6(1H)-one]
[1]
  TrkB activation (p-TrkB immunoblotting): higher agonistic activity than compound m
[1]; listed as 4′-pyrrolidino-7,8-methyl-imidazole-flavone
  TrkB activation (p-TrkB immunoblotting): triggers TrkB activation in primary neurons
[2]; 2.5 mg/kg oral once a day, 3 weeks
  reduction of immobility in forced swim test compared to vehicle control: 45%
[2]; 2.5 mg/kg oral, 21 days
  immobility in forced swim test: active in both FST and TST depression behavioral assays; also recorded: significantly decreased the immobility
[3]
  inhibition at 3 µM: ~27.3%
